# Test results reported in patent US5106842A, “Antibiotic C-3 cyclobutenedione substituted (1-carba)cephalosporin compounds, compositions, and methods of use thereof” (Bristol-Myers Squibb Co., priority 1990, dated 1992).
# Where two headings read alike, the source gives them in different places.
# Experiments:
# [1] = test system: E. coli A15119; assay: in vitro MIC vs. E. coli A15119; assay type: cell-based; conditions: Escherichia coli
# Text: Also included in the table is the in vitro MIC's.
# (§1) MIC (mcg/ml) i.m. vs E. coli A15119
# [2] = test system: E. coli A15119; assay: in vivo therapeutic efficacy after intramuscular administration to mice infected intraperitoneally (PD50); conditions: Escherichia coli, A15119, im
# Experimental: The in vivo therapeutic efficacy of two representative compounds after intramuscular administration to mice infected intraperitoneally with 0.5 ml of various bacterial suspension is shown in Table I. The values are given in PD50 (dose in mg/kg) to give protection to 50% of the infected mice.
# as §1
# [3] = read-out: PD50 i.m. vs E. coli A15119, 41 LD50
SMILES,MIC [1] [µg/mL],"ED50 [2, 3] [mg/kg]","ED50 ([2]; read-out: PD50 i.m. vs E. coli A15119, 143 LD50) [mg/kg]","ED50 ([2]; mice, i.m. dosing, infected i.p. with 0.5 ml bacterial suspension, challenge 143 LD50, dose protecting 50% of infected mice, read-out: PD50 i.m. vs E. coli A15119, 143 LD50) [mg/kg]"
CO/N=C(\C(=O)N[C@@H]1C(=O)N2C(C(=O)O)=C(c3c(N)c(=O)c3=O)CC[C@H]12)c1csc(N)n1 (relative stereo) [Id6],0.06,< 0.098,1.7,
CO/N=C(\C(=O)N[C@@H]1C(=O)N2C(C(=O)O)=C(c3c(OC(C)C)c(=O)c3=O)CS[C@H]12)c1csc(N)n1 [Id3],1,1.4,,> 25
